Assay results published in the NIST ThermoML archive (doi:10.1016/j.fluid.2005.03.014).
± gives the expanded uncertainty stated by the source.

Key:
[1] = refractive index (Na D-line) (dimensionless); conditions: 298.15 K; 101.33 kPa; Liquid; Standard Abbe refractometry
[2] = Liquid; for mass density: 298.15 K, 101.33 kPa

CC(=O)OCC(C)C [2-methylpropyl ethanoate]
Conditions | mass density [kg/m3] | refractive index
[1] | – | 1.3876 ± 0.0008
[2] | 866.12 ± 0.62 | –

CN(C)C=O [dimethylformamide]
Conditions | mass density [kg/m3] | refractive index
[1] | – | 1.4265 ± 0.0007
[2] | 948.72 ± 0.27 | –

[2]
Conditions | vapor or sublimation pressure [kPa]
345.45 K | 6.3 ± 0.23
350.38 K | 7.81 ± 0.23
354.51 K | 9.27 ± 0.24
359.05 K | 11.16 ± 0.24
362.74 K | 12.93 ± 0.24
366.7 K | 15.07 ± 0.24
370.69 K | 17.53 ± 0.24
374.89 K | 20.48 ± 0.24
379.24 K | 23.95 ± 0.24
382.97 K | 27.32 ± 0.25
386.75 K | 31.1 ± 0.25
390.07 K | 34.78 ± 0.25
393.2 K | 38.56 ± 0.26
396.61 K | 43.04 ± 0.26
399.91 K | 47.82 ± 0.26
403.1 K | 52.73 ± 0.27
405.94 K | 57.53 ± 0.27
408.79 K | 62.66 ± 0.27
411.23 K | 67.37 ± 0.28
413.35 K | 71.68 ± 0.28
415.66 K | 76.65 ± 0.29
417.84 K | 81.58 ± 0.29
419.86 K | 86.33 ± 0.29
421.87 K | 91.37 ± 0.3
423.7 K | 96.06 ± 0.3
425.6 K | 101.2 ± 0.31

CC(C)CO [2-methyl-1-propanol]
Conditions | mass density [kg/m3] | refractive index
[1] | – | 1.3937 ± 0.0007
[2] | 797.83 ± 0.61 | –
